Where a SMILES comes first, the peptide text is derived from it.
How the values were obtained:
[1] = stability testing in MES buffer (pH 6.5); type: physicochemical; settings: 37° C., read-out: t1/2 (min) MES Buffer (pH 6.5)
Method: (§1) Stability testing of the various compounds was performed in buffer, intestinal perfusate, and an intestinal homogenate preparation to assess the potential oral availability of these compounds. Initial studies prepared the tissue for stability studies. The buffer used in stability testing is 10 mM MES (pH 6.5) containing 135 mM NaCl, and 5 mM KCl. To collect intestinal perfusate from rats, male Sprague Dawley rats, 8 to 10 weeks old, weighing 250 to 350 g were fasted 15 to 18 hours with water given ad libitum. Anesthesia was administered by intramuscular injection of pentobarbital/ketamine (40 mg/kg and 80 mg/kg, respectively). The rats were placed on a warming pad under a surgical lamp to maintain body temperature and jejunal intestinal segments were exposed through a midline, abdominal incision. Approximately 20 cm segment of the jejunum (2 to 4 cm distal to the ligament of Treitz) was cannulated and the intestinal segments were perfused with 10 mM MES (pH 6.5) containing 135 mM NaCl, and 5 mM KCl at a flow-rate of 0.5 ml/min at 37° C. using a constant infusion pump (Harvard Apparatus, South Natick, Mass.). The collected perfusate was stored at −80° C. until use for ex vivo stability studies. After collection, the perfused intestinal segments were flushed with ice-cold 0.15 M KCl solution and the animal was euthanized and the jejunal intestinal segment detached. The inner intestinal tissue layers are scraped out and homogenized in MES buffer (pH 6.5) in a ratio of 1 part of intestinal tissue to 5 parts buffer. Total protein content of the perfusate and the homogenate were determined using a Biorad protein assay kit. The intestinal homogenate samples were used immediately or rapidly frozen at −80° C. until stability analysis.
The actual stability testing protocol is as follows: A 0.1 ml aliquot of the synthetic peptide solution (1 mg/ml) was added to 0.9 ml of MES buffer, pH 6.5, intestinal perfusate, or intestinal homogenate at 37° C. Samples were mixed by vortexing and 100 microliter aliquots were removed over a 60 to 90 minute period for analysis of breakdown products. […]

[2] = stability testing in intestinal perfusate; type: in vitro ADME; settings: male, Sprague Dawley, rat, intestinal (jejunal) perfusate, pH 6.5, rat
Method: as §1
The actual stability testing protocol is as follows: A 0.1 ml aliquot of the synthetic peptide solution (1 mg/ml) was added to 0.9 ml of MES buffer, pH 6.5, intestinal perfusate, or intestinal homogenate at 37° C. Samples were mixed by vortexing and 100 microliter aliquots were removed over a 60 to 90 minute period for analysis of breakdown products. The 100 microliter sample aliquots were diluted 10 fold with water and subjected to solid phase extraction using a Waters Oasis HLB column. Briefly, the columns were preconditioned by passing 1 ml of MeOH and 1 ml of water over the column, and 1 ml of sample was added to the column. The column was washed with 5% methanol:95% water solution to remove proteins and salts, then eluted with 1 ml of 100% methanol. The methanol was removed by vacuum, and the sample was reconstituted in mobile phase for LC/MS/MS analysis.
LC/MS/MS analysis was performed on a HP1100 HPLC (Hewlett Packard) interfaced with a Quattro II MS/MS detector (Waters/Micromass). For the HPLC separation, a 10 μL aliquot of sample in a mobile phase consisting of an equal volume mixture of acetonitrile/water containing 0.5% formic acid was injected onto a 150 mm×2.2 mm, 5 μm C8 column (Higgins Analytical Inc) and developed at a flow rate of 0.2 ml/min for 5 minutes. The MS detector was used in single ion recording mode at a cone voltage of 50 Volts.

[3] = tested on: normal human citrated plasma; experiment: activated partial thromboplastin time (APTT); type: biochemical
Method: The influence of the various peptide formulations used in the present invention on established coagulation-based assays was determined. The activated partial thromboplastin time (APTT) is performed by mixing 0.05 ml normal human citrated plasma with 0.05 ml activated partial thromboplastin reagent purchased from Organon Teknika, Research Triangle Park, NC in the absence or presence of a peptide inhibitor. After incubation for 5 min at 37° C., the mixture is recalcified with 0.05 ml of 30 mM calcium chloride and the time to clot formation is measured in an Amelung KC4A instrument (Sigma Chemical Corp, St. Louis, Mo.) (Hasan et al. Thrombosis and Haemostasis. 82, 1182-1187 (1999)). The prothrombin time (PT) is performed by mixing 0.05 ml normal human citrated plasma with 0.05 ml Simplastin (Organon Teknika, Research Triangle Park, NC) followed by incubation for 3 min at 37° C. in the absence or presence of a peptide inhibitor. At the addition of 0.05 ml of 30 mM calcium chloride, the time to clot formation is measured in an KC4A instrument (Sigma Chemical Corp, St. Louis, Mo.) (Hasan et al. Thrombosis and Haemostasis. 82, 1182-1187 (1999)). The thrombin clotting time (TCT) is performed by adding 0.1 ml normal human citrated plasma in the absence or presence of a peptide inhibitor and 0.05 ml of a α-thrombin solution such that the final concentration of the thrombin in the entire mixture was 1 nM. Upon addition of the thrombin, the time to clot formation is measured in an KC4A instrument (Sigma Chemical Corp, St. Louis, Mo.).

| half-life at 0.1 mg/ml [1] | half-life at 0.1 mg/ml ([2]; 37° C., read-out: t1/2 (min) Intestinal Perfusate) | half-life at 0.1 mg/ml ([2]; read-out: t1/2 in intestinal perfusate (converted)) | SMILES | peptide concentration with significant prolongation (p<0.05) of the APTT [3] |
| --- | --- | --- | --- | --- |
| 179 min | 111 min | 120 min | N=C(N)NCCC[C@@H](N)C(=O)N1[C@H](C(=O)N2CCC[C@H]2C(=O)NCC(=O)N[C@@H](Cc2ccccc2)C(N)=O)C[C@@H]2CCCC[C@@H]21 [rOicPGF, D-Arg-Oic-Pro-Gly-Phe, reference compound] (HELM PEPTIDE1{[dR].[O=C([C@@H]1C[C@@H]2CCCC[C@@H]2N1[*:1])[*:2]].P.G.F.[am]}$$$$V2.0) |  |
|  |  |  | Cc1ccc(C[C@H](NC(=O)[C@@H](C)NC(=O)[C@@H]2CCCN2C(=O)[C@@H]2C[C@@H]3CCCC[C@@H]3N2C(=O)[C@H](N)CCCNC(=N)N)C(N)=O)cc1 [rOicPaF(p-Me), D-Arg-Oic-Pro-D-Ala-Phe(p-Me)] (HELM PEPTIDE1{[dR].[O=C([C@@H]1C[C@@H]2CCCC[C@@H]2N1[*:1])[*:2]].P.[dA].[Cc1ccc(C[C@H](N[*:1])C(=O)[*:2])cc1].[am]}$$$$V2.0) | 1.56 µM |

— patent US7879792B2, “Synthetic peptide inhibitors of thrombin and thrombin activation of protease activated receptors 1 and 4” (The Regents of the University of Michigan, priority 2005, dated 2011)
